Assay results taken from patent US6355232B1, “Agent for protecting skin and hair moisture” (Takasago International Corporation, priority 1996, dated 2002).

How the values were obtained:
[1] = Water-barrier function (WBF) test, water-evaporation rate; format: physicochemical; conditions: for Water-evaporation rate (mg/hr/cm2): ceramide/CL/CS (40/30/30) dispersed with 10% arginine oleate, 37° C., humidity 40%
Experimental: (§1) A sample solution was prepared, based upon the lamellar liquid crystal (LLC) method of various methods for preparing liposome [Colloids and Surfaces, 69, p.125 (1992)]. Appropriate amounts of the lipid mixture (for example, Ce II (2S,3R)/CL/CS, a weight ratio of 40/30/30, corresponding to the LLC region of the phase diagram) were weighed into a test tube, allowed to stand at 135° C. for 10 minutes, cooled down to room temperature and then appropriate amounts of propylene glycol/glycerol (a weight ration of 1/1) were added to the mixture. These samples were left at 135° C. for 10 minutes and then shaken vigorously. This procedure was repeated three times. Then, oleic acid and an aqueous solution of L-arginine were added in turn and shaken (80 to 90° C.). The LLC gel thus obtained was diluted with a buffer of pH 6.86 to give a vesicle solution of a uniform mixture of ceramides.
A sample solution was coated over a supporting membrane covered with a protein at the surface and left under vacuum overnight to remove water thoroughly. The membrane was fixed in the stainless dish containing 20 ml of water and allowed to stand at 37° C. and a humidity of 40%. The evaporated water was calculated per time unit and area unit to determine the water-evaporation rate of WBF.
All samples tested as shown in Table 4 were mixtures of ceramide/CL/CS (40/30/30) and dispersed with 10% arginine oleate.
All samples tested as shown in Table 5 were mixtures of ceramide/CL/CS (40/30/30) and dispersed with 10% arginine oleate.

[2] = test system: forearm treated with chloroform/methanol (damaged skin); experiment: Transepidermal water-loss (TEWL) test; format: in vivo, human; conditions: for TEWL (g/m^2/hr): ceramide/CL/SSL (50/20/30) dispersed with 10% arginine oleate, forearm, twice per day for 2 days, data after 10 hours
Experimental: The forearm was treated with chloroform/methanol (1/1), each sample was coated on the site and TEWL was determined (n=4, twice per day, used for 2 days).
All tested samples were the (2S,3R) type and the (2S,3S) type and were mixtures of ceramide/CL/SSL (=sodium stearyllactate) (50/20/30). They were dispersed with 10% arginine oleate.

[3] = Water-holding capacity (WHC) test of sample solution; format: physicochemical
Experimental: as §1
A sample solution was applied to a small petri dish and left at 37° C. and a humidity of 40%. The water evaporated as the time lapsed was measured and the ratio of the water remaining in the sample was calculated from the measured value to study WHC.
The samples tested as shown in Table 2 were all mixtures of ceramide/CL/CS (40/30/30) and dispersed with 10% arginine oleate. A control was an aqueous solution of propyleneglycol/glycerol (1/1). […]

[4] = Solubility in cosmetic solvents; format: physicochemical
Experimental: Solubilities of ceramide-II (hereinafter referred to as CeII) of (2S,3R) type and ceramides of other optical isomers were studied. Ethanol, isopreneglycol, propylenglycol, glycerol, oleic acid, ethyl oleate and isopropyl myristate were used as the cosmetic solvents. Each sample was heated up to about 90° C. with vigorous shaking and cooled down to room temperature and then observed visually. 1.

[5] = Test on conditioner effect to hair (WHC); conditions: ceramide/CL/SA (40/20/40) dispersed with 10% arginine oleate, 35° C., humidity 70% overnight
Experimental: Hairs were treated with chloroform/methanol (2/1) and bundles of hairs were coated with samples, rinsed away and then dried under vacuum overnight. They were left at 35° C. and a humidity of 70% overnight. They were weighed to determine the hydrated amount to the dried hairs as WHC.
All tested samples were the (2S,3R) type and the (2S,3S) type and were mixtures of ceramide/CL/SA (=stearic acid) (40/20/40). They were dispersed with 10% arginine oleate.

Structure (SMILES): CCCCCCCCCCCCCCCCCC(=O)N[C@H](CO)[C@@H](O)CCCCCCCCCCCCCCC [(2R,3S), erythro (2R, 3S) type of ceramide-II, reference compound]
- Water-evaporation rate (mg/hr/cm2) ([1]; Table 5): 2.9 mg/hr/cm2

Structure (SMILES): CCCCCCCCCCCCCCCCCC(=O)N[C@@H](CO)[C@H](O)CCCCCCCCCCCCCCC [(2S,3R), ceramide-II of erythro (2S,3R) type]
- TEWL (g/m^2/hr) [2]: 2.8 g/m^2/hr
- TEWL improvement ([2]; compared with uncoated sites / non-treated normal skin): can recover to the TEWL value of the non-treated normal skin more rapidly
- Water-holding capacity (%) (After 5 hours) ([3]; ceramide/CL/CS (40/30/30) dispersed with 10% arginine oleate, 37° C., humidity 40%, after 5 hours): 22.4%
- water-holding capacity compared ([3]; versus the racemates, the SP ceramide, etc.): significantly higher water-holding capacity
- melting point: 95 to 96 °C
- solubility in cosmetic solvents ([4]; compared among Ce II isomers): lowest solubility
- level dissolved in ethanol ([4]; ethanol): 0.1%
- Water-holding capacity (%) [5]: 8.2%
- Water-evaporation rate (mg/hr/cm2) ([1]; Table 4): 2.5 mg/hr/cm2
- Water-evaporation rate (mg/hr/cm2) ([1]; Table 5): 2.5 mg/hr/cm2
- capacity to restrain the water evaporation ([1]; versus other types): more superior to other types

Structure (SMILES): CCCCCCCCCCCCCCCCCC(=O)N[C@@H](CO)[C@@H](O)CCCCCCCCCCCCCCC [(2S,3S), threo (2S, 3S) type of ceramide-II]
- TEWL (g/m^2/hr) [2]: 4.1 g/m^2/hr
- melting point: 101 °C
- Water-evaporation rate (mg/hr/cm2) ([1]; Table 5): 3.6 mg/hr/cm2
